Measurements as given in ChEMBL document CHEMBL1201862, “PubChem BioAssay data set” (2004).
Calls of active or inactive are those of the source.

Columns and labels:
[1] = viability of PTEN-deleted HCT116 cells – cell-based, HCT116 PTEN knockout, dose response (AID 1047); type: functional;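 note: HCT116 colon tumor cells with PTEN knocked out; cells exposed to compound for 60 hours before readout; potency for loss of cell viability measured by luminescence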
[2] = viability of HCT116 lacking mutant beta-catenin – cell-based, human colon tumor, dose response (AID 1045); type: functional;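 note: HCT116 colon tumor cells with beta catenin knocked out; cells exposed to compound for 60 hours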
[3] = biological target: Heat shock protein HSP 90-alpha (Homo sapiens, UniProt P07900); type: functional, organism-based
Fatty acid synthase [4] = biological target: T1, Fatty acid synthase (Homo sapiens, UniProt P49327); experiment: inhibition of human FAS-TE enzyme activity – biochemical, endpoint fluorescence intensity, uHTS hits, dose response (AID 624327); type: functional;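 note: fluorescence from hydrolysis of an O-methyl fluorescein acyl ester substrate by the enzyme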
T1 sequence (P49327 whole entry): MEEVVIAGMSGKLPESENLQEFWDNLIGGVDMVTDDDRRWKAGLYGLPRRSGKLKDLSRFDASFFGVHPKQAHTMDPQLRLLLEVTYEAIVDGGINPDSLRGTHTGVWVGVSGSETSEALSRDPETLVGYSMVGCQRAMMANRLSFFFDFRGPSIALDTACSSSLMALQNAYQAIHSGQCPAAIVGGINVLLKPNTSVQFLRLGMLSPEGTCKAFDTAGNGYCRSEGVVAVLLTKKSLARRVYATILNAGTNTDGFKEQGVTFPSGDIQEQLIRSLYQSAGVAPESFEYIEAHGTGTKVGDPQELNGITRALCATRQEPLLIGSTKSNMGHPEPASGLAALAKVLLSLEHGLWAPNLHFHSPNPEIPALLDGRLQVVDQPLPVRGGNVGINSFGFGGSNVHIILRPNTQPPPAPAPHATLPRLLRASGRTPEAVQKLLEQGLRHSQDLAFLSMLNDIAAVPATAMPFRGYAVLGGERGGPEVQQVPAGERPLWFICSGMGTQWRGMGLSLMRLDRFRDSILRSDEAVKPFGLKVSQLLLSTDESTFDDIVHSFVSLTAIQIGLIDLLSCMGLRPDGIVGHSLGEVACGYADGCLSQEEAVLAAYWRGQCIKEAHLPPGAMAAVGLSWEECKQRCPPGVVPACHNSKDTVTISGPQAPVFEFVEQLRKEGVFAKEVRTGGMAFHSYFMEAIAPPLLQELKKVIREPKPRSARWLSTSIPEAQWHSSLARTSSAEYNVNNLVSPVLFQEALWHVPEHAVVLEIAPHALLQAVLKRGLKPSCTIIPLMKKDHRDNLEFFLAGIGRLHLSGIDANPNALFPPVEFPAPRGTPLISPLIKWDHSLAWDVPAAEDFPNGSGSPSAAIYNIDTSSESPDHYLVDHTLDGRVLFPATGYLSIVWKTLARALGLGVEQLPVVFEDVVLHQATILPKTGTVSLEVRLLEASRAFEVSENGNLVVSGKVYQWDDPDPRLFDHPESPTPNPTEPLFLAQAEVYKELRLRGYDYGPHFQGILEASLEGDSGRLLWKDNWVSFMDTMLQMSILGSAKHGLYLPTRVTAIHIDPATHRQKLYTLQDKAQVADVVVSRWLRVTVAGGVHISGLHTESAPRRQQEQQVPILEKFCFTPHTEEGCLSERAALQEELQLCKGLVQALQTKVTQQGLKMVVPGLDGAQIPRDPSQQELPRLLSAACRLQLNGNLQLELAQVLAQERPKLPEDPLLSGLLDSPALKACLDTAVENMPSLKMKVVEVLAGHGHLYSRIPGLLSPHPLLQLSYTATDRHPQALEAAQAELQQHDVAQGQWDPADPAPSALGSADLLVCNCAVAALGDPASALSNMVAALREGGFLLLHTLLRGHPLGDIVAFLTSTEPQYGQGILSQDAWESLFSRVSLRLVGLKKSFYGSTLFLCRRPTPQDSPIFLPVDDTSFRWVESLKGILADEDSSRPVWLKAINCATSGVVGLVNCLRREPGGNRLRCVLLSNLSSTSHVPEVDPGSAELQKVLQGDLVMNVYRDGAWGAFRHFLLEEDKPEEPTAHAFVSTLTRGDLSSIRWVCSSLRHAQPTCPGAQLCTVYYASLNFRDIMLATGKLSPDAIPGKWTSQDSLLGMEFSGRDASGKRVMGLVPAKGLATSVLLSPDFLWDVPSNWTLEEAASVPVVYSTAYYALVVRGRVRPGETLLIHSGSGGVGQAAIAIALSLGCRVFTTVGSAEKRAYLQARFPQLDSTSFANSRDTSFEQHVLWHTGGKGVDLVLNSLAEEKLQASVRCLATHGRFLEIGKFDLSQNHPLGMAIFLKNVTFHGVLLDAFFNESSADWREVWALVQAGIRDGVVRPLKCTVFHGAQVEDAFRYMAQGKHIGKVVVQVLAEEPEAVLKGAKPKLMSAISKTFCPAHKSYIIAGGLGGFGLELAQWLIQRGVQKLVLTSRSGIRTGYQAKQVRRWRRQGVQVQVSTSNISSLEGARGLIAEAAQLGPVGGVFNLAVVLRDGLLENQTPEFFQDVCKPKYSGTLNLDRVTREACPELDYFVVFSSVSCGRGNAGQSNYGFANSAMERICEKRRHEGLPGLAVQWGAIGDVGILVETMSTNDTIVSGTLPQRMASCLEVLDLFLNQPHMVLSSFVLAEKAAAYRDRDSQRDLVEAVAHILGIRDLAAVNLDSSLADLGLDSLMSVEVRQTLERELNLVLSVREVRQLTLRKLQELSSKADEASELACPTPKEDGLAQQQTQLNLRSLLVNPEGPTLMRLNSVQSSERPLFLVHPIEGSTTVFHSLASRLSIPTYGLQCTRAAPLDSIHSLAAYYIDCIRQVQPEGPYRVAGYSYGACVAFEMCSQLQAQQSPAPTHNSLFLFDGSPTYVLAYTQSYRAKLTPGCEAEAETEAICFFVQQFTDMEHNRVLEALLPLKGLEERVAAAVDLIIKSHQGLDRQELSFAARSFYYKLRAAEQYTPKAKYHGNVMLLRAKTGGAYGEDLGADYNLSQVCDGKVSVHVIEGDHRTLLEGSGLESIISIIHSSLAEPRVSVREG

Fatty acid synthase [5] = biological target: T1, Fatty acid synthase; experiment: inhibition of human FAS-TE enzyme activity – biochemical, kinetic fluorescence intensity, dose response (AID 624326); type: functional;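 note: rate of fluorescence rise from hydrolysis of a fluorogenic O-methyl fluorescein ester substrate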
[6] = Luminescence Cell-Based Dose Confirmation HTS to Identify Inhibitors of Platelet Dense Granule Release. [Related pubchem assays: 1663 (Primary HTS), 1678 (Summary of Project)]; type: functional
[7] = biological target: Luciferin 4-monooxygenase (Photinus pyralis, UniProt P08659); experiment: inhibition of purified Photinus pyralis luciferase – biochemical, luminescence, dose response (AID 1891)
Sequence of Luciferin 4-monooxygenase (P08659 whole entry): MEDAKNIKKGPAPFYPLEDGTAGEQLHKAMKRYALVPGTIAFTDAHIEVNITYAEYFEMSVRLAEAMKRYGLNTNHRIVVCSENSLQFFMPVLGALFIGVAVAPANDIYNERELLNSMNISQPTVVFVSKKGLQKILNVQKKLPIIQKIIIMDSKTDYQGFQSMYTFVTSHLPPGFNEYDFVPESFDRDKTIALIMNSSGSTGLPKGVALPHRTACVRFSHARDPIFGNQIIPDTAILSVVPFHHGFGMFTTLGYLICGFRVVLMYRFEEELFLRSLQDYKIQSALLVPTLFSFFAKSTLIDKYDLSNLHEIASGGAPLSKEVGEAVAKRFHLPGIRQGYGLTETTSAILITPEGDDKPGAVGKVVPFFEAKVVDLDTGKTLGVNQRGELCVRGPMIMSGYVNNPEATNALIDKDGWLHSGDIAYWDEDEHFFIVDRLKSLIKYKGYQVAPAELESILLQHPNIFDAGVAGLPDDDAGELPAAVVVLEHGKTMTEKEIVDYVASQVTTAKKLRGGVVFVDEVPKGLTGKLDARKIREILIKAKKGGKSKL

[8] = Luminescence Cell-Based Dose Confirmation HTS to Identify Activators of 5'UTR Stem-Loop Driven Alpha-Synuclein mRNA Translation in H4 Neuroglioblastoma Cells. [Related pubchem assays: 1829 (Project Summary), 1814 (Primary HTS)]; type: functional
[9] = Luminescence Cell-Based Dose Response HTS to Identify Activators of Luciferase Translation or Activity in H4 […] Cells. [Related pubchem assays: 1829 (Project Summary), 1814 (Primary HTS)]; type: functional
H4 = experiment: Luminescence Cell-Based Dose Response HTS to Identify Activators of 5'UTR Stem-Loop Driven Prion Protein mRNA Translation in H4 Neuroglioblastoma Cells. [Related pubchem assays: 1829 (Project Summary), 1814 (Primary HTS)]; type: functional; conditions: Homo sapiens
[10] = biological target: FAD-linked sulfhydryl oxidase ALR (Homo sapiens, UniProt P55789); experiment: ALR-catalysed DTT oxidation blockers – biochemical, H2O2 detection, luminescence, cherry-pick, dose response (AID 493248)
Sequence of FAD-linked sulfhydryl oxidase ALR (P55789 whole entry): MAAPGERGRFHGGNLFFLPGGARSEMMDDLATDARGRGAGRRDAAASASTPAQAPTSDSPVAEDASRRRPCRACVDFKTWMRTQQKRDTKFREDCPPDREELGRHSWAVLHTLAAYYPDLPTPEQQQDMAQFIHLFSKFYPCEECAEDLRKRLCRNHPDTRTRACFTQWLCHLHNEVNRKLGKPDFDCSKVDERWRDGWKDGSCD

Cytochrome P450 2C9 = Cytochrome P450 2C9 (Homo sapiens, UniProt P11712)
Sequence of Cytochrome P450 2C9 (P11712 whole entry): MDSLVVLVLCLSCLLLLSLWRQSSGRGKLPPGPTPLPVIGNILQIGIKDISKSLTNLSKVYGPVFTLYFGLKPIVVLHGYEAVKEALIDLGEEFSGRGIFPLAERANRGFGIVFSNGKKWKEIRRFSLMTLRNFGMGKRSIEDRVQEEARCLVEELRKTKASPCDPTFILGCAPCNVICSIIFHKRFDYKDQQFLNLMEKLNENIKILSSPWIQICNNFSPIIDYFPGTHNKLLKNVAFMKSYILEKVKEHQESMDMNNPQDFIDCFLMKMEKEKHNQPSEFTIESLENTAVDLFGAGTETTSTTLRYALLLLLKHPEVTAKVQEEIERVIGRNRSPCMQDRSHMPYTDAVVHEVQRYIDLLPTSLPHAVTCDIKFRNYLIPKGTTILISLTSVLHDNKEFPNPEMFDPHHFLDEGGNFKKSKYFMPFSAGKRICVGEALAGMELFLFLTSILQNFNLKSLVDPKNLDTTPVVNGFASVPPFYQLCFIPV

Cytochrome P450 3A4 = Cytochrome P450 3A4 (Homo sapiens, UniProt P08684);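 note: CYP3A4 tested as one member of a cytochrome P450 panel screen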
Sequence of Cytochrome P450 3A4 (P08684 whole entry): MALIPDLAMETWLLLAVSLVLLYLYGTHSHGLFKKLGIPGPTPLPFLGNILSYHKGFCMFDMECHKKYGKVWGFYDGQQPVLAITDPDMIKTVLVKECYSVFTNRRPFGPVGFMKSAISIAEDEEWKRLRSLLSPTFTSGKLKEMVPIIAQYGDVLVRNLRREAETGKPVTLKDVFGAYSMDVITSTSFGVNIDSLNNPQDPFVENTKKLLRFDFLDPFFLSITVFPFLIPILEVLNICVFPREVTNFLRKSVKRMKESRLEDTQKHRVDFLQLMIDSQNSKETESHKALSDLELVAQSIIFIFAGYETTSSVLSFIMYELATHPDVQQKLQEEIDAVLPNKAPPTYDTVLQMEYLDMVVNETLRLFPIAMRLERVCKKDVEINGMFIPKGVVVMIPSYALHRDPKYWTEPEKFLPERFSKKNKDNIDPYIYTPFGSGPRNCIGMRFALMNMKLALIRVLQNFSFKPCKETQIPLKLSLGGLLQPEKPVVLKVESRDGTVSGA

Cytochrome P450 2C19 = Cytochrome P450 2C19 (Homo sapiens, UniProt P33261); experiment: Cytochrome panel assay with activity outcomes. Panel member name: p450-cyp2c19 Compounds with AC50 equal or less than 10 uM are considered active; type: functional; conditions: read-out: AC50
Sequence of Cytochrome P450 2C19 (P33261 whole entry): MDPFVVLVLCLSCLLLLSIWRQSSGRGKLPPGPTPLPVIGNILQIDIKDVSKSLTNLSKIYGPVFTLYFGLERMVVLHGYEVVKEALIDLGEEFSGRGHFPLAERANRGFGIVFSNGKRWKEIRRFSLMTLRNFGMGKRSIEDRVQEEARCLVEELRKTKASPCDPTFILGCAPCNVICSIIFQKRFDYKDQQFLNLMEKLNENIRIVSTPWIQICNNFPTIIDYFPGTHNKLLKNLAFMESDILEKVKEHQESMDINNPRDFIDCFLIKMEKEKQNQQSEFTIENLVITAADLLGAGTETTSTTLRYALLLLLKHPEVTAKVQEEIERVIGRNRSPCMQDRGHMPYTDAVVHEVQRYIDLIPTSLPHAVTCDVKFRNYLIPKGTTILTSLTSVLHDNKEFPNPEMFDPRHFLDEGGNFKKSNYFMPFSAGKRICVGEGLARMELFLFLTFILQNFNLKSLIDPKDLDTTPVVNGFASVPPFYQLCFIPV

Cytochrome P450 1A2 = biological target: T2, Cytochrome P450 1A2 (Homo sapiens, UniProt P05177);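 note: PubChem cytochrome P450 panel assay, CYP1A2 panel member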
T2 sequence (P05177 whole entry): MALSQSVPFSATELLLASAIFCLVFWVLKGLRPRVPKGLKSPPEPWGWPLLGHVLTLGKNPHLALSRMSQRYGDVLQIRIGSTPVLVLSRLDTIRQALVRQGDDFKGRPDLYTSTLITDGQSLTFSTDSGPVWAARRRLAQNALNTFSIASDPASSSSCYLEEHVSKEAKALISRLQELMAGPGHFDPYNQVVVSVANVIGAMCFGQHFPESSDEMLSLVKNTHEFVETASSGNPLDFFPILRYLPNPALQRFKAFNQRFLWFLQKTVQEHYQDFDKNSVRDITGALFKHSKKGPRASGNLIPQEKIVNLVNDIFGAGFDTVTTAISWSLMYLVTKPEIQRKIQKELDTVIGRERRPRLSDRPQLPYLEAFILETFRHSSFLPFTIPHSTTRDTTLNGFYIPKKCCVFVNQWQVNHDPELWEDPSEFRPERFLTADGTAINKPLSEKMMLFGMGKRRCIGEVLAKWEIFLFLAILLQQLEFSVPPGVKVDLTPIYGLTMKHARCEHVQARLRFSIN

[11] = DRD fibroblast viability loss – cell-based, non-viral oncogenic, luminescence, dose response (AID 1934); type: functional; conditions: Homo sapiens
BJ [12] = experiment: cells; type: functional, cell-based; conditions: Homo sapiens
BJ [13] = experiment: BJ-TERT fibroblast viability loss – cell-based, RAS-independent, luminescence, dose response (AID 1933); type: functional; conditions: Homo sapiens
[14] = NIH-3T3 fibroblast cytotoxicity, dose response, cytotoxicity control, cell-based, fluorescence, Alamar Blue, secondary assay (AID 2327); type: functional;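 note: NIH-3T3 mouse fibroblasts cultured with fluconazole at 8 µg/mL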
BJ [15] = experiment: BJ-TERT-LT-ST fibroblast viability loss – cell-based, RAS-independent, luminescence, dose response (AID 1935); type: functional; conditions: Homo sapiens;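 note: BJ fibroblasts immortalized with TERT plus LT and ST oncogenes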
[16] = NIH3T3 cell viability loss – ATP luminescence, mouse fibroblasts, counter-screen, dose response (AID 2010); type: functional, cell-based;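 note: cells exposed to compound for about 90 hours before reading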
[17] = Trypanosoma cruzi growth suppression in host cells – NIH3T3 host cells, beta-gal luminescence, confirmation (AID 2044); type: functional, cell-based;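 note: intracellular parasites grown in NIH/3T3 mouse fibroblasts as host cells; luminescent beta-galactosidase reporter signal from transgenic T. cruzi replicating inside host cells; inhibitors lower the luminescence signal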

Compound: CCN1C/C(=C\c2cccc([N+](=O)[O-])c2)C(=O)/C(=C/c2cccc([N+](=O)[O-])c2)C1
- EC50 [1]: 0.117 µM (active)
- EC50 [2]: 0.187 µM (active)
- AC50 [3]: 8.11 µM (active)

Compound: O=S(=O)(Nc1ccc2c(c1)OCCO2)c1ccc2oc3ccccc3c2c1
- IC50 (Fatty acid synthase [4]): 8 µM (active)
- IC50 (Fatty acid synthase [5]): 7.42 µM (active)

Compound: CC(NC(=O)c1ccc([N+](=O)[O-])cc1Cl)C1CC2CCC1C2 (stereo not drawn)
- IC50 (Fatty acid synthase [4]): 9.39 µM (active)
- IC50 (Fatty acid synthase [5]): 11.1 µM (active)

Compound: O=C(Nc1ccccc1)c1cccc(N2CCCC2=O)c1
- EC50 [6]: 45.5 µM (active)
- EC50 [7]: > 112 µM (not active)

Compound: Cc1nc2ccccc2[nH]c(=O)c1=NNc1ccccc1
- EC50 [8]: 24.1 µM (active)
- EC50 [9]: > 120 µM (not active)
- EC50 (H4): 19 µM (active)

Compound: Cc1ccc(OCCC(=O)OCc2csc(CC(=O)Nc3ccccc3C)n2)cc1
- EC50 [6]: > 112 µM (not active)
- EC50 [7]: > 112 µM (not active)

Compound: O=C(Cn1cc([N+](=O)[O-])cn1)N1CCc2ccccc2C1
- IC50 (Fatty acid synthase [4]): 11.1 µM (active)
- IC50 (Fatty acid synthase [5]): 7.62 µM (active)

Compound: COc1cccc(C(=O)Nc2ccccc2N2CCCC2)c1
- AC50 [10]: 1.54 µM (active)

Compound: CCN(CC)c1ccc(NC(=O)C2CCCN(S(=O)(=O)c3cccnc3)C2)c(C)c1 (stereo not drawn)
- AC50 [10]: 2.3 µM (active)

Compound: COC(=O)c1ccc(CSc2nc3cc(C)ccc3[nH]2)o1
- AC50 [10]: 2.71 µM (active)

Compound: COC(=O)c1sc(-c2ccccc2)cc1NC(=O)c1cc(OC)cc(OC)c1
- EC50 [1]: 25.3 µM (active)
- EC50 [2]: 21.7 µM (active)

Compound: Cc1ccc(C(=O)NC(=S)Nc2cc(-c3nc4ccccc4s3)ccc2C)cc1
- EC50 [1]: 26.9 µM (active)
- EC50 [2]: 22 µM (active)
- AC50 (Cytochrome P450 2C9): 1.78 µM (inconclusive)
- AC50 (Cytochrome P450 3A4): 10 µM (inconclusive)

Compound: CN1CCN(C(=O)c2ccc(COc3ccc(C(C)(C)C)cc3)o2)CC1
- EC50 [8]: 4.82 µM (active)
- AC50 (Cytochrome P450 2C19): 25.1 µM (inconclusive)
- AC50 (Cytochrome P450 1A2): 12.6 µM (inconclusive)
- EC50 [9]: 0.148 µM (inconclusive)
- AC50 (Cytochrome P450 2C9): 31.6 µM (inconclusive)
- EC50 (H4): 35.2 µM (active)

Compound: O=C(/C=C/c1ccc(-c2ccccc2[N+](=O)[O-])o1)c1ccccc1
- EC50 [1]: 22.5 µM (active)
- EC50 [2]: 22.3 µM (active)

Compound: c1ccc(CSc2nnc(Cc3ccccc3)o2)cc1
- EC50 [8]: 14.4 µM (active)
- EC50 [9]: 16.8 µM (active)
- EC50 (H4): > 120 µM (not active)

Compound: N=c1n(CCO)c2ccccc2n1CCOc1ccc(Cl)cc1Cl
- EC50 [1]: 8.23 µM (active)
- EC50 [2]: 8.45 µM (active)

Compound: O=C(NCc1ccc(C(F)(F)F)cc1)C1CC(c2c(Cl)cccc2Cl)=NO1 (stereo not drawn)
- IC50 (Fatty acid synthase [4]): 10.3 µM (active)
- IC50 (Fatty acid synthase [5]): 9.63 µM (active)

Compound: COc1ccc2c(c1)NP(=S)(Oc1ccccc1)N2 (stereo not drawn)
- AC50 [10]: 2.02 µM (active)

Compound: CC1CC(Nc2ccccc2)c2ccccc2N1C(=O)c1ccco1 (stereo not drawn)
- AC50 [10]: 21.1 µM (active)

Compound: Cc1cc(/C=C2\SC(N)=NC2=O)c(C)n1-c1ccccc1
- EC50 [8]: 0.167 µM (active)
- EC50 [9]: 0.143 µM (active)
- EC50 (H4): > 120 µM (not active)

Compound: COc1ccc(N2CCN(C(CNS(C)(=O)=O)c3ccco3)CC2)cc1 (stereo not drawn)
- AC50 [10]: 4.67 µM (active)

Compound: O=C1C2CCN(CC2)C1Cc1ccc(OCCOc2ccccc2)cc1 (stereo not drawn)
- EC50 [11]: > 150 µM (not active)
- EC50 (BJ [12]): > 150 µM (not active)
- EC50 (BJ [13]): > 150 µM (not active)
- EC50 [14]: 30.6 µM (active)
- EC50 (BJ [15]): > 150 µM (not active)

Compound: O=C(OCC(=O)N1CCN(C(=O)c2ccco2)CC1)c1cc(-c2ccccc2)nc2ccccc12
- AC50 [3]: 4.24 µM (active)

Compound: COc1cccc(C(c2sc3ncnn3c2O)N2CCN(C(=O)c3ccco3)CC2)c1 (stereo not drawn)
- EC50 [6]: > 112 µM (not active)
- EC50 [7]: > 112 µM (not active)

Compound: CN(C)c1oc(-c2ccco2)nc1C#N
- EC50 [6]: > 112 µM (not active)
- EC50 [7]: > 112 µM (not active)

Compound: CCN(CC)c1ccc(NC(=O)c2nc3nc(C)cc(C(F)F)n3n2)cc1
- AC50 [10]: 1.51 µM (active)

Compound: Cn1cc(S(=O)(=O)N2CCOCC2)cc1C(=O)Nc1cccc(Cl)c1
- EC50 [6]: > 112 µM (not active)
- EC50 [7]: > 112 µM (not active)

Compound: COc1cccc(NC(=O)c2ccc3c(c2)OCCO3)c1
- EC50 [11]: 15.7 µM (active)
- EC50 (BJ [12]): 18.2 µM (active)
- EC50 (BJ [13]): 20.9 µM (active)
- EC50 (BJ [15]): > 150 µM (inconclusive)
- EC50 [6]: 3.52 µM (active)
- EC50 [7]: 4.7 µM (active)

Compound: O=S(=O)(c1ccc(-c2csc(-c3cccnc3)n2)cc1)N1CCOCC1
- IC50 (Fatty acid synthase [5]): 4.92 µM (active)

Compound: CCOC(=O)c1ccc(Nc2nnc(C)c3ccccc23)cc1
- EC50 [8]: 14.4 µM (active)
- EC50 [9]: 18.6 µM (active)
- EC50 (H4): 16.9 µM (active)

Compound: Brc1ccc2nc(-c3cccs3)c(NCC3CCCO3)n2c1 (stereo not drawn)
- EC50 [8]: 18.9 µM (active)
- EC50 [9]: 9.6 µM (active)
- EC50 (H4): 17.5 µM (active)

Compound: COc1ccc(Oc2ccc(/C=C/C(=O)c3ccc(O)cc3)cc2[N+](=O)[O-])cc1
- EC50 [1]: 2.53 µM (active)
- EC50 [2]: 2.14 µM (active)

Compound: O=C(NCC(c1cccnc1)N1CCN(c2ccccc2)CC1)c1ccco1 (stereo not drawn)
- EC50 [16]: > 60 µM (not active)
- AC50 [10]: 3.08 µM (active)
- EC50 [17]: 998 nM (active)

Compound: COc1ccc([N+](=O)[O-])cc1NC(=O)COC(=O)/C=C/c1ccco1
- IC50 (Fatty acid synthase [4]): 5.11 µM (active)
- IC50 (Fatty acid synthase [5]): 8.49 µM (active)

Compound: O=C(COC(=O)c1cc([N+](=O)[O-])ccc1N1CCOCC1)Nc1ccccc1OC(F)F
- IC50 (Fatty acid synthase [4]): 4.73 µM (active)
- IC50 (Fatty acid synthase [5]): 5.1 µM (active)

Compound: Fc1cc(Br)ccc1N=C(S)NCCc1ccccc1
- EC50 [8]: 15.9 µM (active)
- EC50 [9]: 21.3 µM (active)
- EC50 (H4): 27.5 µM (active)

Compound: Nc1ccc(CCc2ccc(N)cc2)cc1
- AC50 [10]: 1.91 µM (active)

Compound: O=C(Nc1ccc(C(F)(F)F)cc1)c1cccc(-n2cnnn2)c1
- IC50 (Fatty acid synthase [4]): 11.1 µM (active)
- IC50 (Fatty acid synthase [5]): 5.97 µM (active)

Compound: O=C(O)c1cc(O)ccc1NC(=O)c1cccc2ccccc12
- AC50 [10]: 3.41 µM (active)

Compound: O=C(NCCC(=O)N(CCc1ccccc1)Cc1ccccc1)c1ccc([N+](=O)[O-])cc1
- IC50 (Fatty acid synthase [4]): 8.21 µM (active)
- IC50 (Fatty acid synthase [5]): 8.92 µM (active)

Compound: Cc1nn(-c2ccc([N+](=O)[O-])cc2)c(O)c1/C=N/CCN1CCN(C(=O)c2ccccc2F)CC1
- AC50 [3]: 5.72 µM (active)

Compound: OCCSc1nncn1/N=C/c1c[nH]c2ccccc12
- EC50 [6]: > 112 µM (not active)
- EC50 [7]: > 112 µM (not active)

Compound: O=C1N=C(c2ccccc2)N(c2ccccc2)C(=O)/C1=C(/O)c1ccccc1
- EC50 [8]: 19.2 µM (active)
- EC50 [9]: > 120 µM (not active)
- EC50 (H4): > 120 µM (not active)

Compound: OC(CCCN1CCC(O)(c2ccc(Cl)cc2)CC1)c1ccc(F)cc1 (stereo not drawn) [HYDROXYHALOPERIDOL]
- EC50 [1]: 29.3 µM (active)
- EC50 [2]: 28.4 µM (active)
